Source: ChEMBL document CHEMBL6109146, “Discovery of New Pyrazolone Carbothioamide Derivatives as Potent Antifungal Agents for the Treatment of Candidiasis and Cryptococcosis” (J Med Chem, 2025)
In brackets after ≈: the same amount, converted by molar mass. Activity calls are given as the source filed them. The rule behind the calls is not given here.

Legend:
Nakaseomyces glabratus [1] = experiment: Upregulation of TRR1 gene expression in Candida glabrata 0161 incubated for 8 hrs by qRT-PCR analysis; assay type: functional
Nakaseomyces glabratus [2] = experiment: Inhibition of biofilm formation in Candida glabrata 0161 at 16 to 32 microg/ml incubated for 24 hrs by XTT reagent based assay relative to control; assay type: functional; settings: dose 16-32 µg/ml, at 16 to 32 µg/mL
Candida glabrata = experiment: Binding affinity to Candida glabrata KIX domain assessed as inhibition constant
Nakaseomyces glabratus [3] = experiment: Inhibition of biofilm formation in Candida glabrata 0161 at 2 to 32 microg/ml incubated for 24 hrs by XTT reagent based assay; assay type: functional, organism-based; settings: dose 2-32 µg/ml
[Candida] auris [4] = Antifungal activity against Candida auris 0029 assessed as inhibition of fungal growth incubated for 48 to 72 hrs by microplate reader analysis; assay type: functional, organism-based; settings: Candidozyma auris, time 48-72 hrs
Cryptococcus neoformans [5] = experiment: Upregulation of GPX1 gene expression in Cryptococcus neoformans H99 at 4 microg/ml incubated for 8 hrs by qRT-PCR analysis; assay type: functional; settings: dose 4.0 µg/ml
Nakaseomyces glabratus [6] = experiment: Induction of oxidative damage Candida glabrata 0161 assessed as increase in MDA level incubated for 24 hrs; assay type: functional, organism-based
[7] = Half-life in male ICR mouse at 2 mg/kg, iv measured after 24 hrs by LC-MS/MS analysis; assay type: ADME, organism-based; settings: in vivo
[Candida] auris [8] = Antifungal activity against Candida auris 0030 assessed as inhibition of fungal growth incubated for 48 to 72 hrs by microplate reader analysis; assay type: functional, organism-based; settings: Candidozyma auris, time 48-72 hrs
Nakaseomyces glabratus [9] = experiment: Inhibition of matured biofilm in Candida glabrata 0161 at 2 to 32 microg/ml incubated for 24 hrs by XTT reagent based assay; assay type: functional, organism-based; settings: dose 2-32 µg/ml
Nakaseomyces glabratus [10] = experiment: Upregulation of GPX1 gene expression in Candida glabrata 0161 incubated for 8 hrs by qRT-PCR analysis; assay type: functional
Nakaseomyces glabratus [11] = experiment: Antifungal activity against Candida glabrata 0161 infected in candidiasis female ICR mouse model assessed as reduction in fungal burden in kidney at 20 mg/kg, ip pre-infected with fungi for 3 hrs followed by compound administration and measured after 5 days; assay type: functional; settings: time 5 day
Cryptococcus neoformans [12] = experiment: Induction of oxidative damage in Cryptococcus neoformans H99 assessed as increase in MDA level at 4 microg/ml incubated for 24 hrs relative to control; assay type: functional; settings: dose 4 µg/ml
Nakaseomyces glabratus [13] = experiment: Antifungal activity against Candida glabrata 0161 infected in candidiasis female ICR mouse model assessed as tight arrangement of renal tubular epithelial cells at 20 mg/kg, ip pre-infected with fungi for 3 hrs followed by compound administration and measured after 5 days by H and E staining based analysis; assay type: functional, organism-based; settings: time 5.0 day
Candida albicans [14] = experiment: Antifungal activity against Candida albicans 103 assessed as inhibition of fungal growth incubated for 48 to 72 hrs by microplate reader analysis; assay type: functional, organism-based; settings: time 48-72 hrs
Nakaseomyces glabratus [15] = experiment: Antifungal activity against Candida glabrata 0161 assessed as inhibition of fungal growth incubated for 48 to 72 hrs by microplate reader analysis; assay type: functional; settings: time 48-72 hrs
Nakaseomyces glabratus [16] = experiment: Induction of ROS accumulation in Candida glabrata 0161 assessed as increase in intracellular ROS level by measuring intense green fluorescence incubated for 24 hrs by DCFH-DA probe based fluorescence microscopic analysis; assay type: functional, organism-based
Cryptococcus neoformans [17] = experiment: Antifungal activity against Cryptococcus neoformans H99 assessed as inhibition of fungal growth by measuring fold increase in MIC in presence of 10% serum containing transferrin-bound ferric iron and free iron; assay type: functional
Nakaseomyces glabratus [18] = experiment: Upregulation of TRX1 gene expression in Candida glabrata 0161 incubated for 8 hrs by qRT-PCR analysis; assay type: functional
Nakaseomyces glabratus [19] = experiment: Antifungal activity against Candida glabrata 8535 assessed as inhibition of fungal growth incubated for 48 to 72 hrs by microplate reader analysis; assay type: functional; settings: time 48-72 hrs
[20] = Half-life in male ICR mouse at 20 mg/kg, po measured after 24 hrs by LC-MS/MS analysis; assay type: ADME, organism-based; settings: in vivo
Cryptococcus neoformans [21] = experiment: Antifungal activity against Cryptococcus neoformans H99 infected in cryptococcosis female ICR mouse model assessed as dense arrangement of neuronal cells at 20 mg/kg, ip pre-infected with fungi for 3 hrs followed by compound administration and measured after 5 days by H and E staining based analysis; assay type: functional, organism-based; settings: time 5.0 day
Candida albicans [22] = experiment: Antifungal activity against Candida albicans 9296 assessed as inhibition of fungal growth incubated for 48 to 72 hrs by microplate reader analysis; assay type: functional, organism-based; settings: time 48-72 hrs
Cryptococcus neoformans [23] = experiment: Antifungal activity against Cryptococcus neoformans H99 assessed as inhibition of fungal growth at <0.0078 microg/ml incubated for 72 hrs by microplate reader analysis; assay type: functional, organism-based; settings: dose < 0.0078 µg/ml
[24] = AUC (0 to infinity) in male ICR mouse at 20 mg/kg, po measured after 24 hrs by LC-MS/MS analysis; assay type: ADME, organism-based; settings: in vivo
Cryptococcus neoformans [25] = experiment: Induction of morphological changes in Cryptococcus neoformans H99 assessed as vacuole lysis at 4 microg/ml incubated for 8 hrs by transmission electron microscopic analysis; assay type: functional, organism-based; settings: dose 4.0 µg/ml
Nakaseomyces glabratus [26] = experiment: Reduction in intracellular free iron ions level in Candida glabrata 0161 incubated for 24 hrs by absorbance based analysis; assay type: functional
Cryptococcus neoformans [27] = experiment: Induction of morphological changes in Cryptococcus neoformans H99 assessed as vacuole fragmentation at 4 microg/ml incubated for 8 hrs by transmission electron microscopic analysis; assay type: functional, organism-based; settings: dose 4.0 µg/ml
Nakaseomyces glabratus [28] = experiment: Antifungal activity against Candida glabrata 0161 assessed as inhibition of fungal growth in presence of 10% serum containing transferrin-bound ferric iron and free iron; assay type: functional, organism-based
[29] = Clearance in male ICR mouse at 2 mg/kg, iv measured after 24 hrs by LC-MS/MS analysis; assay type: ADME, organism-based; settings: in vivo
Nakaseomyces glabratus [30] = experiment: Antifungal activity against Candida glabrata 0161 assessed as inhibition of fungal growth incubated up to 72 hrs by microplate reader analysis; assay type: functional, organism-based; settings: dose 0.13-0.00049 µg/ml
Cryptococcus neoformans [31] = experiment: Induction of morphological changes in Cryptococcus neoformans H99 assessed as mitochondrial fragmentation at 4 microg/ml incubated for 8 hrs by transmission electron microscopic analysis; assay type: functional, organism-based; settings: dose 4.0 µg/ml
Cryptococcus neoformans [32] = experiment: Antifungal activity against Cryptococcus neoformans H99 infected in cryptococcosis female ICR mouse model assessed as reduction in fungal burden in brain at 20 mg/kg, ip pre-infected with fungi for 3 hrs followed by compound administration and measured after 5 days; assay type: functional, organism-based; settings: time 5.0 day
Nakaseomyces glabratus [33] = experiment: Antifungal activity against Candida glabrata 0161 infected in candidiasis female ICR mouse model assessed as reduction in detachment of renal tubular epithelial cells at 20 mg/kg, ip pre-infected with fungi for 3 hrs followed by compound administration and measured after 5 days by H and E staining based analysis; assay type: functional, organism-based; settings: time 5.0 day
Nakaseomyces glabratus [34] = experiment: Antifungal activity against Candida glabrata 0161 assessed as inhibition of fungal growth in presence of Fe(III) ion; assay type: functional, organism-based
Cryptococcus neoformans [35] = experiment: Induction of morphological changes in Cryptococcus neoformans H99 assessed as mitochondrial lysis at 4 microg/ml incubated for 8 hrs by transmission electron microscopic analysis; assay type: functional, organism-based; settings: dose 4.0 µg/ml
Nakaseomyces glabratus [36] = experiment: Upregulation of TSA1 gene expression in Candida glabrata 0161 incubated for 8 hrs by qRT-PCR analysis; assay type: functional
Nakaseomyces glabratus [37] = experiment: Fungicidal activity against Candida glabrata 0161 incubated for 48 hrs by time-kill kinetics analysis; assay type: functional
[38] = Oral bioavailability in male ICR mouse at 20 mg/kg measured after 24 hrs by LC-MS/MS analysis; assay type: ADME, organism-based; settings: in vivo
Cryptococcus neoformans [39] = experiment: Antifungal activity against Cryptococcus neoformans H99 infected in cryptococcosis female ICR mouse model assessed as reduction in cysts formation in brain cortex at 5 mg/kg, ip pre-infected with fungi for 3 hrs followed by compound administration and measured after 5 days by H and E staining based analysis; assay type: functional, organism-based; settings: time 5.0 day

With `Nc1cc(=O)n(C(=S)Nc2ccc(C3CCCCC3)cc2)[nH]1` the Activity (Nakaseomyces glabratus [1]) was “Active”, the “inhibition (INH)” value (Nakaseomyces glabratus [2]) was about 100% and the K (Candida glabrata) was 174 µM. For the same compound, the inhibition (Nakaseomyces glabratus [3]) was “Moderate_effect”, the Activity ([Candida] auris [4]) was “Active” and the Activity (Cryptococcus neoformans [5]) was “Active”. The Activity (Nakaseomyces glabratus [6]) was “Active”, the half-life [7] was 2.12 h and the Activity ([Candida] auris [8]) was “Active”. The inhibition (Nakaseomyces glabratus [9]) was “Moderate_effect”, the Activity (Nakaseomyces glabratus [10]) was “Active” and the Activity (Nakaseomyces glabratus [11]) was 1.2 log10CFU/g. The Activity (Cryptococcus neoformans [12]) was about 20%, the Activity (Nakaseomyces glabratus [13]) was “Active” and the Activity (Candida albicans [14]) was “Active”. The MIC80 (Nakaseomyces glabratus [15]) was 0.38 nM (≈ 0.12 ng/mL), the Activity (Nakaseomyces glabratus [16]) was “Active” and the “fold change (FC)” value (Cryptococcus neoformans [17]) was about 1000. The Activity (Nakaseomyces glabratus [18]) was “Active”, the MIC80 (Nakaseomyces glabratus [19]) was 1.2 10^-4 ug/ml and the half-life [20] was 1.46 h. The Activity (Cryptococcus neoformans [21]) was “Active”, the Activity (Candida albicans [22]) was “Active” and the Activity (Cryptococcus neoformans [23]) was “Not active; Decrease In Inhibitory Potency Observed”. The AUC(0-inf) [24] was 4740 ng·h/mL, the Activity (Cryptococcus neoformans [25]) was “Active” and the Activity (Nakaseomyces glabratus [26]) was “Active”. For the same compound, the Activity (Cryptococcus neoformans [27]) was “Active”, the Activity (Nakaseomyces glabratus [28]) was “inactive” and the clearance [29] was 16.2 mL/min/kg. The Activity (Nakaseomyces glabratus [30]) was “Dose-dependent-effect”, the Activity (Cryptococcus neoformans [31]) was “Active” and the Activity (Cryptococcus neoformans [32]) was “Active”. For the same compound, the Activity (Nakaseomyces glabratus [33]) was “Active”, the Activity (Nakaseomyces glabratus [34]) was “inactive” and the Activity (Cryptococcus neoformans [35]) was “Active”. For the same compound, the Activity (Nakaseomyces glabratus [36]) was “Active”, the MFC (Nakaseomyces glabratus [37]) was 2 µg/mL (≈ 6.32 µM) and the bioavailability [38] was 22.6%. For the same compound, the Activity (Cryptococcus neoformans [39]) was “Active”.
